For one experiment, the system named is HTB-20. Briefly: HTB-20 cell culture growth (Coulter Counter cell counting). Type of experiment: cell-based, Human. The protocol:
(§1) Human breast cancer cell lines MCF-7 and HTB-20 were subcultured in flasks accompanied by daily changes of medium comprising RPMI 1640 supplemented with fetal bovine serum (10%, v/v). The cultures were maintained in a humidified chamber at 37° C. with 5% CO2 and 95% air. The cells were harvested at confluency by trypsinzation and suspended at a cell density of 200,000 to 300,000 cells/ml in a small volume of the growth medium to be used.
(§2) In a typical experiment in which the effects of the anti-cancer nanoemulsions on cell growth were to be examined, aliquots of the cell suspension containing about 20,000 to 30,000 cells were replicately plated in dishes containing 3 ml of the growth medium consisting of RPMI 1640 supplemented with charcoal-stripped fetal bovine serum (5%, v/v) and of penicillin-streptomycin (10 units and 10 μg, respectively) and mycostatin (2.5 units/ml) and incubated at 37° C. in the humidified chamber. On day 1 when the cell adhered firmly to the bottom surface of the dishes, the medium was aspirated off and the cells then challenged by the anti-cancer nanoemulsions; groups of replicate dishes received 3 ml of fresh growth medium containing either ASF or tamoxifen at the indicated concentrations. The control groups received only the microfluidized nanoemulsion and ASF or tamoxifen in free solution.
(§3) At various time intervals (i.e., Days 1-17), triplicate dishes were withdrawn for cell counting; after removal of the medium by aspiration, the adhered cells were washed twice with 1 ml of Eagles balanced salt solution without Ca^2+ and Mg^2+ and dislodged from the dish by trypsinization involving the incubation of 0.5 ml of trypsin-EDTA solution (IX) for 5 minutes at 37° C., after which the protease reaction was stopped by adding 2.5 ml of a “stop” medium consisting of RPMI 1640 and 5% fetal calf serum. The cells were then collected by centrifugation with subsequent suspension in the medium. An aliquot of the suspension was subjected to cell counting using a Coulter Counter (data expressed as 10^6 cells per dish).

Another experiment deals with MCF-7. Briefly: MCF-7 cell culture growth (Coulter Counter cell counting). Type of experiment: cell-based, Human. The protocol:
as §1, §2, §3

With `CC/C(=C(\c1ccccc1)c1ccc(OCCN(C)C)cc1)c1ccccc1` [Tamoxifen In Free Solution, tamoxifen], the cell count is reported as 4 106 cells per dish in the experiment with HTB-20 (HTB-20, 1 day of incubation); 12 106 cells per dish in the experiment on HTB-20 (HTB-20, 3 days of incubation); 24 106 cells per dish with HTB-20 (HTB-20, 5 days of incubation); 28 106 cells per dish in the experiment on HTB-20 (HTB-20, 7 days of incubation); 41 106 cells per dish with HTB-20 (HTB-20, 10 days of incubation); 51 106 cells per dish in the experiment on HTB-20 (HTB-20, 12 days of incubation). In addition, the cell count in the experiment with MCF-7 (MCF-7, 5 days of incubation) is recorded as 5 106 cells per dish; with MCF-7 (MCF-7, 8 days of incubation) it was 19 106 cells per dish; in the experiment on MCF-7 (MCF-7, 10 days of incubation), 25 106 cells per dish; in the experiment with MCF-7 (MCF-7, 12 days of incubation) it was 33 106 cells per dish; in the experiment with MCF-7 (MCF-7, 15 days of incubation), 50 106 cells per dish; in the experiment with MCF-7 (MCF-7, 17 days of incubation), 67.5 106 cells per dish. In addition, the “improvement of time-course of tamoxifen-induced apoptosis” value in the experiment with HTB-20 (HTB-20, applied as a microfluidized nanoemulsion vs free solution) is recorded as 2-10 fold; in the experiment with MCF-7 (MCF-7, applied as a microfluidized nanoemulsion vs free solution) it was 2-10 fold.

Source of the values: patent publication US20150079176A1, “ANTI-OXIDANT SYNERGY FORMULATION NANOEMULSIONS TO TREAT CANCER” (University of Massachusetts Lowell, priority 2005, published 2015).
